Data: patent US20050265944A1, “Carbohydrate-based anti-wrinkle and tissue remodelling compounds” (Ultraceuticals R&D Limited, priority 2002, published 2005)

Experiments:
[1] = tested on: skin of normal rats; experiment: Intradermal injection, cell migration / cellularity at the site of administration (histology); type: in vivo, female Fischer rats; conditions: 50 microlitre intradermal, 48 hours; for cellularity at the site of injection: versus saline
Description: The effects of intradermally injected glucose, maltose and maltopentaose on cell migration into the site of administration in the skin of normal rats. Healthy, specific pathogen free female Fischer rats 10-12 weeks of age (n=3) were anesthetised with ether and hair on their backs was clipped (electric miniclippers) from two areas of approximately 1.5 cm×4 cm either side of and paralleling the spinal column. The test and control substances were injected into the centre of 1 square cm defined areas. Substances were administered in such a fashion that each was injected into 4 different positions at least once in order to control for any possible anatomical positioning effect. Agents were dissolved in normal saline at a concentration of 100 mg/ml and sterile filtered prior to administration. Fifty microlitre injection volumes were given intradermally using 30 gauge needles and control injections consisted of 50 microlitres of sterile normal saline. Animals were sacrificed 48 hours following injection and injection sites were subjected to histological sectioning followed by microscopic examination.
(§1) The effects of intradermally injected dextran and maltopentaose on cell migration into the site of administration in the skin of normal rats. In a similar experiment to that outlined in Example 1 above, female Fischer rats, 10-12 weeks of age (n=3) were treated with 50 microlitre volumes of i) 50 mg/ml of clinical grade dextran (MW 71,400); ii) 50 mg/ml maltopentaose; or iii) normal saline using a 30 gauge needle. Skin injection sites were submitted for histological sectioning and examined microscopically 48 hours following injection.
as §1, with “injected maltotriose” for “injected dextran”, “age (n=2)” for “age (n=3)”, “i) 100” for “i) 50”, “of maltotriose;” for “of clinical grade dextran (MW 71,400);”, “ii) 100” for “ii) 50”
(§2) The effects of intradermally injected maltopentaose and 1,4-beta-mannohexaose on cell migration into the site of administration in the skin of normal rats. In a similar experiment to that outlined in Example 1 above, female Fischer rats, 10-12 weeks of age (n=2) were treated with 50 microlitre volumes of i) 100 mg/ml of maltopentaose; ii) 100 mg/ml of 1,4-beta-mannohexaose; or iii) normal saline using a 30 gauge needle. Skin injection sites were submitted for histological sectioning and examined microscopically 48 hours following injection.
as §2, with “amylose” for “maltopentaose”, “the O-phosphorylated mannan isolated from Pichia holstii” for “1,4-beta-mannohexaose”, “50” for “100”, “amylose;” for “maltopentaose;”, “the O-phosphorylated mannan from Pichia holstii;” for “1,4-beta-mannohexaose;”, “injection. […]” for “injection.”

[2] = tested on: cutaneous tissue; experiment: Dermal application: cellularity and collagen deposition in cutaneous tissue (general statements); type: in vivo; conditions: general statement in the description
[3] = tested on: skin (dermis) fibroblasts; experiment: Intradermal injection into abdominal skin, cellularity, collagen (Gomori's stain) and fibroblasts (prolyl 4-hydroxylase immunohistochemistry); type: in vivo, female Wistar rats; conditions: Example 7, 50 mg/ml in sterile saline, 50 microliters intradermal; for dermal collagen (Gomori's staining) / fibroblast-like cells / cellular infiltrate in the dermis: 48 hours and 7 days; for fibroblast-like cells / cellular infiltrate in the dermis: H&E
Description: Following ether anaesthesia, hair was clipped from skin on both sides of the abdominal region of 8-10 week old female Wistar rats. Intradermal injections (via a 30 gauge needle) of either sterile saline (50 microliters), PM5 (50 microliters, 50 mg/ml in sterile saline) or amylopectin (50 microliters, 50 mg/ml in sterile saline) were placed in the centre of 1 cm^2 defined areas of abdominal skin. Forty-eight hours and 7 days after injection, groups of animals were euthanased by CO2 overdose and skin samples were examined following the preparation of 6 μm histological sections that were stained with H&E and Gomori's (collagen) stain. In addition, immunohistochemistry using a mouse anti-rat prolyl 4-hydroxylase monoclonal antibody (Chemicon International Inc) in paraffin embedded skin sections was used to identify fibroblasts within the dermis.

[4] = Example 1, 100 mg/ml in normal saline

Molecule: OC[C@H]1O[C@H](O[C@H]2[C@H](O)[C@@H](O)C(O)O[C@@H]2CO)[C@H](O)[C@@H](O)[C@@H]1O (mixture of isomers) [maltose, reference compound]
- cellularity at the site of injection [1, 4]: neither saline, glucose nor maltose had any effect on cellularity

Molecule: OC[C@H]1O[C@@H](O[C@H]2[C@H](O)[C@H](O)[C@H](O[C@H]3[C@H](O)[C@H](O)[C@H](O[C@H]4[C@H](O)[C@H](O)[C@H](O[C@H]5[C@H](O)[C@H](O)C(O)O[C@@H]5CO)O[C@@H]4CO)O[C@@H]3CO)O[C@@H]2CO)[C@@H](O)[C@@H](O)[C@@H]1O (stereo partly drawn) [1,4-beta-D-mannopentaose]
- increase in cellularity and collagen deposition in cutaneous tissue / tissue remodelling effect [2]: effective tissue remodelling agents and effective anti-wrinkle compounds

Molecule: OC[C@H]1O[C@@H](O[C@H]2[C@H](O)[C@H](O)[C@H](O[C@H]3[C@H](O)[C@H](O)[C@H](O[C@H]4[C@H](O)[C@H](O)[C@H](O[C@H]5[C@H](O)[C@H](O)[C@H](O[C@H]6[C@H](O)[C@H](O)C(O)O[C@@H]6CO)O[C@@H]5CO)O[C@@H]4CO)O[C@@H]3CO)O[C@@H]2CO)[C@@H](O)[C@@H](O)[C@@H]1O (stereo partly drawn) [1,4-beta-mannohexaose]
- cellularity, 1,4-beta-mannohexaose injection sites versus maltopentaose sites ([1]; Example 4, 100 mg/ml): the results were not significantly different
- cellularity at the site of injection ([1]; Example 4, 100 mg/ml): increases in cellularity
- increase in cellularity and collagen deposition in cutaneous tissue / tissue remodelling effect [2]: effective tissue remodelling agents and effective anti-wrinkle compounds

Molecule: O=P(O)(O)OC[C@H]1O[C@H](O[C@@H]2[C@H](O)[C@@H](O[C@@H]3[C@H](O)[C@@H](O[C@@H]4[C@H](O)[C@@H](O[C@H]5[C@@H](O)[C@H](O)[C@@H](CO)O[C@@H]5O)O[C@H](CO)[C@H]4O)O[C@H](CO)[C@H]3O)O[C@H](CO)[C@H]2O)[C@@H](O)[C@@H](O)[C@@H]1O [PM5, 6-O-phospho-alpha-D-mannose-(1,3)-alpha-D-mannose-(1,3)-alpha-D-mannose-(1,3)-alpha-D-mannose-(1,2)-alpha-D-mannose]
- dermal collagen (Gomori's staining) [3]: collagen deposited in the lower dermal layers
- fibroblast-like cells / cellular infiltrate in the dermis [3]: increase in fibroblast-like cells
- increase in cellularity and collagen deposition in cutaneous tissue / tissue remodelling effect [2]: effective tissue remodelling agents and effective anti-wrinkle compounds

Molecule: amylopectin
- fibroblast numbers (immunohistochemical staining, anti-rat prolyl 4-hydroxylase) [3]: influx of fibroblastoid cells
- dermal collagen (Gomori's staining) [3]: increase in dermal collagen
- fibroblast-like cells / cellular infiltrate in the dermis [3]: marked “fibroblast-like” cellular infiltrate in both the upper and lower regions of the dermis
- fibroblast numbers (immunohistochemical staining, anti-rat prolyl 4-hydroxylase) ([3]; listed as Amylopectin): increase in dermal collagen (as indicated Gomori's staining) (FIG. 3), and fibroblast numbers
- increase in cellularity and collagen deposition in cutaneous tissue / tissue remodelling effect [2]: particularly effective in this regard

Molecule: amylose
- cellularity at the site of injection ([1]; Example 5, 50 mg/ml): increases in cellularity

Molecule: dextran [reference compound]
- cellularity at the site of injection ([1]; Example 2, 50 mg/ml): increased cellularity was noticed in the dextran injection sites but this was not statistically significantly different from the saline injected sites

Molecule: maltoheptaose
- increase in cellularity and collagen deposition in cutaneous tissue / tissue remodelling effect [2]: effective tissue remodelling agents and effective anti-wrinkle compounds

Molecule: maltohexaose
- increase in cellularity and collagen deposition in cutaneous tissue / tissue remodelling effect [2]: effective tissue remodelling agents and effective anti-wrinkle compounds

Molecule: maltopentaose
- cellularity at the site of injection [1, 4]: significant increase in cellularity (P=0.001) versus saline
- cellularity at the site of injection ([1]; Example 2, 50 mg/ml): clear and significant difference in cellularity versus saline
- cellularity at the site of injection ([1]; Example 3, 100 mg/ml): clear and significant difference in cellularity versus saline
- cellularity at the site of injection ([1]; Example 4, 100 mg/ml): increases in cellularity
- increase in cellularity and collagen deposition in cutaneous tissue / tissue remodelling effect [2]: effective tissue remodelling agents and effective anti-wrinkle compounds

Molecule: maltotriose [reference compound]
- cellularity at the site of injection ([1]; Example 3, 100 mg/ml): no increase in cellularity
